Measured values from US20250032636A1, “Phage-Drug Conjugate” (The University of Sydney, priority 2021, published 2025).
Like-named read-outs stand apart in the source and are kept apart here.

Assays:
[1] = test system: P. aeruginosa biofilm; experiment: Biofilm formation inhibition assay, crystal violet staining; type: cell-based, Pseudomonas aeruginosa PAO1; details: 6 h
Method: (§1) A Pseudomonas aeruginosa PAO1 inoculum was freshly prepared by inoculating one colony in 10 mL of LB broth and incubating on an orbital shaker at 220 rpm at 37° C. for 16-17 h. The bacterium culture medium was diluted 200-fold to an optical density at 600 nm (OD600) between 0.003-0.005 in M9 minimal medium (containing 48 mM Na2HPO4, 22 mM KH2PO4, 9 mM NaCl, 19 mM NH4Cl, 2 mM MgSO4, 0.1 mM CaCl2), and 20 mM glucose, pH 7.0). This medium was freshly prepared for each experiment.
(§2) For the biofilm inhibition assay, various treatment formulations were added to the 24-well microtiter plates simultaneously as cell culture media placement. The plates were incubated on an orbital shaker at 180 rpm for 6 h incubation at 37° C. For this 6 h biofilm dispersal assay, the plates were incubated on an orbital shaker at 180 rpm for 6 h at 37° C. for biofilm formation. Planktonic bacteria were removed, and 1 mL of fresh M9 minimal medium was added to each well, followed by each treatment addition. The plates were incubated for a further 2.5-3 h before quantifying the biofilm biomass and viabilities of biofilm bacteria.
(§3) The biofilm biomass was analysed by crystal violet (CV) staining. The biofilm on each well surface of the plates was washed once with 1 mL PBS before CV staining. 1 mL of 0.1% CV solution made by a 1:20 dilution of 2% CV aqueous solution in PBS. The CV stained biofilm was washed twice with 1 mL PBS after 20 min incubation. The remaining CV stained biofilm was dissolved in 33% glacial acetic acid and quantified by measuring the absorbance at 550 nm (OD550) using a multimode microplate reader (VICTOR™ X4, Perkin-Elmer). All biofilm assays were performed in two independent experiments.

[2] = test system: P. aeruginosa biofilm bacteria; experiment: Biofilm bacteria viability by CFU counting (drop-plate method); type: cell-based, Pseudomonas aeruginosa PAO1; details: FIG. 8; single component alone (AMK 4 or 8 μg/mL, nitroxide 2 mM, phage 10^6 PFU/mL); 2 h treatment
Method: The cells in the treated and untreated groups were counted using the drop-plated method to determine the biofilm bacteria viability. Biofilms on the surface of the wells were rinsed with once 1 mL PBS and then were resuspended in 1 mL PBS. The 24-well plates were placed in an ultrasonication bath for 5 min before viable cells count assay. The re-suspended biofilm bacteria were serially diluted 10-fold (10^−1 to 10^−10) in PBS, and 10 μL of each dilution was dropped onto MH agar plates in duplicate, which were incubated at 37° C. overnight. The results are presented as CFU mL^−1. A graph illustrating the effects of different POEGA-b-PVBA conjugated formulations on biofilm cell survival are shown in FIG. 8.
(§4) Biofilm dispersal and bacterial viability assays were conducted as described above using samples set out in Table 2. A graph illustrating the effects of different POEGA-b-PPFPA conjugated formulations on biofilm dispersal are shown in FIG. 13 and on biofilm cell survival are shown in FIG. 14.

[3] = test system: P. aeruginosa biofilm; experiment: Biofilm dispersal assay, crystal violet staining of biofilm biomass; type: cell-based, Pseudomonas aeruginosa PAO1
Method: as §1
as §2, with “The plates were incubated for a further 2.5-3 h before quantifying the biofilm biomass and viabilities of biofilm bacteria.” left out
The concentrations of each component used for the treatments would be based on their individual effects on biofilm dispersal. […]
as §3, §4

[4] = test system: P. aeruginosa W.T. PAO1; experiment: Minimum inhibitory concentration (MIC), broth microdilution; type: cell-based, Pseudomonas aeruginosa; details: 37° C., 24 h
Method: The minimum inhibitory concentration (MIC) of the antimicrobial agents was measured using the broth microdilution technique. A bacterial culture medium with 10^5-10^6 CFU mL^−1 was prepared freshly in Mueller-Hinton (MH) broth and added to a 2-fold serial dilution of antimicrobial agents in 96-well microplates. A cell-only control and a medium-only control were also included in the same microplate. The 96-well microplates were incubated at 37° C. for 24 h. MIC was determined to be the concentration of antimicrobial agents at which the optical density (OD600) was equal to that of a medium-only control using a multimode microplate reader (VICTOR™ X4, Perkin-Elmer). The MIC can also be recorded as the lowest concentration preventing visible bacterial growth after 24 h.

[5] = test system: P. aeruginosa biofilms; experiment: Confocal microscopy of LIVE/DEAD stained biofilms; type: cell-based, Pseudomonas aeruginosa; details: nitroxide at 2 mM; LIVE/DEAD staining, FIG. 9
Method: For microscopy analysis, P. aeruginosa biofilms were grown in glass-bottom 24-well plates (MatTek Corporation, Ashland MA, USA) for 6 h. After 3 h treatment, biofilms were rinsed twice with PBS before being stained with LIVE/DEAD® BacLight™ bacterial viability kit reagents (L-7007, Molecular Probes) according to the manufacturer's procedure. According to the manufacturer's procedure, 1 to 10 dilution of each of the two components was freshly prepared with PBS. 0.3 mL of the mixed solution was added to each well for 20 min incubation, and the plate was kept in the dark condition. The samples were analysed using confocal laser scanning microscopy (CLSM) with a Nikon A1 confocal microscope. Representative confocal images showing P. aeruginosa biofilms treated with POEGA-b-PVBA conjugated formulations are shown in FIG. 9.

| SMILES | effect on inhibiting the formation of biofilms ([1]; AMK at a higher concentration than 4 μg mL^−1) | concentration at which biofilm formation was inhibited ([1]; added with inoculated culture) [µg/mL] | survival of biofilm bacteria [2] | reduction of biofilm biomass of pre-established P. aeruginosa biofilm ([3]; AMK alone at 32 μg mL^−1, 8×MIC, 6 h biofilm, 2 h treatment) [%] | effect on biofilm dispersal ([3]; cotreatment study FIG. 7, AMK 4 or 8 μg/ml, phage 10^6 PFU mL^−1, 6 h biofilm, 2 h treatment) | MIC ([4]; Pseudomonas aeruginosa, PAO1, MH broth, read-out: MIC) [mg/L] | inhibition of biofilm formation ([1]; nitroxide concentration range of 1 to 5 mM) | P. aeruginosa biofilm dispersal ([3]; comparative example, FIG. 13A, printed: nitroxide agent alone at AMK concentration of 8 μg/mL) | reduction of biofilm biomass ([3]; cotreatment study FIG. 7, nitroxide 2 mM, phage 10^6 PFU mL^−1, AMK 4 and 8 μg mL^−1, POEGA-b-PVBA linker, 2 h treatment) | P. aeruginosa biofilm dispersal ([3]; nitroxide alone at 2 mM, 6 h biofilm, 2 h treatment) [%] | P. aeruginosa biofilm dispersal ([3]; nitroxide alone at 5 mM, 6 h biofilm, 2 h treatment) [%] | MIC ([4]; MH broth) [mM] | biofilm biovolume, confocal [5] |
| --- | --- | --- | --- | --- | --- | --- | --- | --- | --- | --- | --- | --- | --- |
| NCC[C@H](O)C(=O)N[C@@H]1C[C@H](N)[C@@H](O[C@H]2O[C@H](CN)[C@@H](O)[C@H](O)[C@H]2O)[C@H](O)[C@H]1O[C@H]1O[C@H](CO)[C@@H](O)[C@H](N)[C@H]1O [AMK, amikacin] | strong effect | 4 | did not affect | 10 | did not have an effect | 4 | – | – | – | – | – | – | – |
| CC1(C)CC(N)CC(C)(C)N1[O] [nitroxide, 4-amino-2,2,6,6-tetramethyl-piperidinyloxyl] | – | – | did not affect | – | – | – | significantly inhibited biofilm formation | about 30% | about 30% | 30 | 70 | 6 | greatly reduced biofilm biovolume |
